12 compounds from ChEMBL document CHEMBL1201862, “PubChem BioAssay data set” (2004) can be followed below.

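How tested: cells in 96-well plates exposed to compound for 48 hours at five concentrations. At the GI50, growth is halved.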 Active and inactive are the calls of the source. Cut-off read from the data, not from the text of the source: active = GI50 up to about 1.1 µM and inactive = higher.

What is called GI50 is the concentration at which growth is held to half of that of the control.

Some test systems named below: A549; NCI-H522; NCI-H460; UO-31; PC-3; SF-539; T47D; HCC 2998; RPMI-8226; 786-0; KM12; HT-29; Hs-578T; OVCAR-3; HCT-116; EKVX; M14; HCT-15; MDA-N.
What all share (test): DTP human tumour cell line panel, 48 h

Take `CC1=CC[C@@]2(C)CC[C@](O)(C(C)C)C2C(OC(=O)c2ccccc2)C1` (stereo partly drawn): the GI50 in the test with A549 is 15.6 µM (inactive); with NCI-H522 it was 16.5 µM (inactive); with NCI-H460, 21.6 µM (inactive); in the test on UO-31, 17.3 µM (inactive); in the test with PC-3, 18.7 µM (inactive); with SF-539, 19.8 µM (inactive). Moreover, the GI50 in the test on T47D was 20.1 µM (inactive); in the test with HCC 2998, 11.8 µM (inactive); in the test with RPMI-8226, 16 µM (inactive); in the test with 786-0, 18.5 µM (inactive); with KM12, 18.4 µM (inactive); in the test on HT-29, 16.7 µM (inactive). In addition, the GI50 in the test on Hs-578T was 21.2 µM (inactive); in the test on OVCAR-3, 17.5 µM (inactive); in the test with HCT-116, 17.3 µM (inactive); in the test with EKVX, 15.5 µM (inactive); in the test with M14, 18.7 µM (inactive); in the test with HCT-15, 18.7 µM.
Consider `Cc1ccc(-n2c(N)c(C#N)c3[nH]nc(N)c3c2=O)cc1`, for which the GI50 with NCI-H460, in the test with UO-31, in the test on PC-3, with SF-539, with T47D and in the test on HCC 2998 was > 100 µM (inactive) each time. Besides, the GI50 in the test with RPMI-8226, in the test on 786-0, in the test with KM12, in the test on HT-29, in the test on Hs-578T and with HCT-116 was > 100 µM (inactive) each time. The results for the GI50 in the test on EKVX, in the test on M14 and in the test with HCT-15 were 95.1 µM (inactive), > 100 µM (inactive) and more than 100 µM, respectively.
As for `CCOC(=O)c1cnc(-n2[nH]c(C)c(CCO)c2=O)[nH]c1=O`, the GI50 in the test with A549, in the test with NCI-H460, with UO-31, in the test with PC-3, with SF-539 and in the test with MDA-N was > 100 µM (inactive) in each case. Also, the GI50 in the test on T47D, with HCC 2998, in the test with RPMI-8226, with 786-0, with KM12 and in the test with HT-29 was > 100 µM (inactive) throughout. Also, the GI50 in the test on Hs-578T is > 100 µM (inactive); in the test on OVCAR-3, > 100 µM (inactive); in the test on HCT-116, > 100 µM (inactive); in the test with EKVX, > 100 µM (inactive); with M14 it was > 100 µM (inactive); in the test with HCT-15, more than 100 µM.
In the case of `CCOC(=O)c1ccc(NCc2ccc3nc(OC)c(OC)nc3c2)cc1`, the GI50 with A549, in the test with NCI-H522, in the test on NCI-H460, in the test on UO-31, in the test on PC-3 and with SF-539 was > 100 µM (inactive) throughout. Also, the GI50 was > 100 µM (inactive) in the test with MDA-N; 57.1 µM (inactive) with T47D; > 100 µM (inactive) in the test on HCC 2998; 94.8 µM (inactive) in the test on 786-0; > 100 µM (inactive) in the test on KM12; > 100 µM (inactive) in the test on HT-29. The GI50 was > 100 µM (inactive) in the test with OVCAR-3; 92.3 µM (inactive) with HCT-116; > 100 µM (inactive) in the test with EKVX; > 100 µM (inactive) in the test with M14; more than 100 µM with HCT-15.
Turning to `O=C(/C=C\c1cccc2ccccc12)c1cccs1`, the GI50 in the test on A549 was 16.8 µM (inactive); with NCI-H522, 2.52 µM (inactive); in the test with NCI-H460 it was 14 µM (inactive); in the test with UO-31, 12.9 µM (inactive); in the test on SF-539 it was 16.9 µM (inactive); with HCC 2998 it was 15.5 µM (inactive). For the same compound, the GI50 in the test on RPMI-8226 was 2.47 µM (inactive); with 786-0, 10.7 µM (inactive); with KM12, 4.88 µM (inactive); in the test with HT-29 it was 5.21 µM (inactive); in the test on OVCAR-3, 11.4 µM (inactive); with HCT-116, 3.03 µM (inactive). Besides, the GI50 in the test on EKVX was 12.8 µM (inactive); with M14, 15.1 µM (inactive); with HCT-15, 3.18 µM.
On to `Nc1ccc(/C=C/c2ccc3cccnc3c2)cc1`, for which the GI50 in the test on A549, with NCI-H460, in the test on UO-31, in the test on PC-3, in the test with SF-539 and in the test on MDA-N was > 100 µM (inactive) each time. The GI50 is 92.9 µM (inactive) with T47D; > 100 µM (inactive) in the test on HCC 2998; 2.26 µM (inactive) in the test on RPMI-8226; > 100 µM (inactive) with 786-0; > 100 µM (inactive) in the test on KM12; > 100 µM (inactive) in the test with HT-29. For the same compound, the GI50 with Hs-578T is > 100 µM (inactive); in the test with OVCAR-3, > 100 µM (inactive); in the test with HCT-116 it was > 100 µM (inactive); in the test on EKVX it was > 100 µM (inactive); in the test on M14 it was > 100 µM (inactive); with HCT-15, more than 100 µM.
`COc1cc2c(cc1OS(C)(=O)=O)N=C[C@@H]1CCCN1C2=O`: the GI50 in the test on A549, with NCI-H522, in the test on NCI-H460, with UO-31, in the test with SF-539 and in the test with T47D was > 100 µM (inactive) throughout. The GI50 in the test on HCC 2998, with RPMI-8226, in the test on 786-0, with KM12, in the test on HT-29 and in the test with Hs-578T was > 100 µM (inactive) throughout. Besides, the GI50 in the test on OVCAR-3 is > 100 µM (inactive); in the test on HCT-116, > 100 µM (inactive); in the test on EKVX, > 100 µM (inactive); in the test on M14, > 100 µM (inactive); in the test on HCT-15 it was more than 100 µM.
As for `COc1cc2c3c(c1OC)-c1ccccc1C(C(O)c1ccccc1)C3N(C)CC2` (stereo not drawn), the GI50 is 39.5 µM (inactive) in the test with A549; 18.2 µM (inactive) in the test on NCI-H522; 27.3 µM (inactive) in the test with NCI-H460; 19.1 µM (inactive) in the test with UO-31; 21.4 µM (inactive) with SF-539; 17.7 µM (inactive) in the test on HCC 2998. Further, the GI50 is 21.9 µM (inactive) in the test with RPMI-8226; 30.7 µM (inactive) with 786-0; 25.8 µM (inactive) in the test on KM12; 24.7 µM (inactive) in the test on HT-29; 34.8 µM (inactive) in the test with OVCAR-3; 19.6 µM (inactive) in the test with HCT-116. Further, the GI50 in the test with EKVX is 90.4 µM (inactive); with M14 it was 18.1 µM (inactive); in the test on HCT-15, 25.4 µM.
As to `O=C(O)c1c2c(cc3c(=O)cc(-c4ccccc4)oc13)CCCC2`, the GI50 is > 100 µM (inactive) with A549; 71.4 µM (inactive) with NCI-H522; > 100 µM (inactive) in the test with NCI-H460; > 100 µM (inactive) with UO-31; > 100 µM (inactive) in the test with SF-539; > 100 µM (inactive) in the test with HCC 2998. Further, the GI50 in the test with RPMI-8226, in the test on 786-0, in the test on KM12, with HT-29, in the test on OVCAR-3 and in the test with HCT-116 was > 100 µM (inactive) throughout. Also, the GI50 in the test with EKVX was > 100 µM (inactive); in the test with M14, > 100 µM (inactive); with HCT-15, more than 100 µM.
`COc1ccc2c(c1)[n+]([O-])c(C(=O)C/C(=N\NC(=O)C[N+](C)(C)C)C(=O)Nc1cc(Cl)ccc1Cl)c(C)[n+]2[O-]`: the GI50 in the test on A549, in the test with NCI-H522, with NCI-H460, in the test with UO-31, in the test with SF-539 and in the test on HCC 2998 was > 100 µM (inactive) throughout. Further, the GI50 in the test with RPMI-8226, in the test with 786-0, in the test with KM12, with HT-29, with OVCAR-3 and in the test with HCT-116 was > 100 µM (inactive) throughout. For the same compound, the GI50 in the test on EKVX is 0.0891 µM (active); in the test on M14 it was > 100 µM (inactive); in the test with HCT-15 it was more than 100 µM.
Consider `N#CC(C#N)=Cc1ccc(C(O)P(=O)(O)O)cc1` (stereo not drawn), for which the GI50 is > 100 µM (inactive) in the test on A549; 56.6 µM (inactive) in the test on NCI-H522; > 100 µM (inactive) in the test on NCI-H460; > 100 µM (inactive) with UO-31; > 100 µM (inactive) with SF-539; > 100 µM (inactive) in the test on HCC 2998. For the same compound, the GI50 with RPMI-8226, in the test on 786-0, with KM12, with HT-29, with OVCAR-3 and with HCT-116 was > 100 µM (inactive) throughout. The GI50 with EKVX was > 100 µM (inactive); with M14, > 100 µM (inactive); in the test on HCT-15, more than 100 µM.
Turning to `COc1ccc(-c2cc(C(=O)Nc3cccc(C(F)(F)F)c3)nc(S)n2)cc1`, the GI50 with A549, in the test on NCI-H522, with NCI-H460, in the test with UO-31, with SF-539 and with HCC 2998 was > 100 µM (inactive) each time. Also, the GI50 with RPMI-8226, with 786-0, with KM12, with HT-29, in the test with OVCAR-3 and in the test on HCT-116 was > 100 µM (inactive) each time. Besides, the GI50 in the test with EKVX is > 100 µM (inactive); in the test on M14, > 100 µM (inactive); in the test with HCT-15, more than 100 µM.
